Data from PubChem BioAssay AID2060615 (Molecular Pharmacology Branch, DTP, NCI, 2025).

System: 496974-208-R-J2-PDC complex spheroids, growth % test/control
Assay: Anticancer human tumor 496974-208-R-J2-PDC patient-derived pancreatic carcinoma cell line growth inhibition [CLK]
Conditions: for IC50: curve of first compound; for viability, T/C: stronger effect = lower value
Method in brief: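 Multi-cell-type spheroids combined patient-derived tumor cells with HUVEC endothelial cells and human mesenchymal stem cells. Paired agents were dosed in half-log steps down from about clinical Cmax, or from 10 microM where Cmax was unknown.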

[1] = second compound 0.0316 µM, first compound 0.0316 µM
[2] = second compound 0.0316 µM, first compound 0.1 µM
[3] = second compound 0.0316 µM, first compound 0.316 µM
[4] = second compound 0.0316 µM, first compound 1 µM
[5] = second compound 0.0316 µM, first compound 3.16 µM
[6] = second compound 0.0316 µM, first compound 10 µM
[7] = second compound 0.1 µM, first compound 0.0316 µM
[8] = second compound 0.1 µM, first compound 0.1 µM
[9] = second compound 0.1 µM, first compound 0.316 µM
[10] = second compound 0.1 µM, first compound 1 µM
[11] = second compound 0.1 µM, first compound 3.16 µM
[12] = second compound 0.1 µM, first compound 10 µM
[13] = second compound 0.316 µM, first compound 0.0316 µM
[14] = second compound 0.316 µM, first compound 0.1 µM
[15] = second compound 0.316 µM, first compound 0.316 µM
[16] = second compound 0.316 µM, first compound 1 µM
[17] = second compound 0.316 µM, first compound 3.16 µM
[18] = second compound 0.316 µM, first compound 10 µM
[19] = second compound 1 µM, first compound 0.0316 µM
[20] = second compound 1 µM, first compound 0.1 µM
[21] = second compound 1 µM, first compound 0.316 µM
[22] = second compound 1 µM, first compound 1 µM
[23] = second compound 1 µM, first compound 3.16 µM
[24] = second compound 1 µM, first compound 10 µM
[25] = second compound 3.16 µM, first compound 0.0316 µM
[26] = second compound 3.16 µM, first compound 0.1 µM
[27] = second compound 3.16 µM, first compound 0.316 µM
[28] = second compound 3.16 µM, first compound 1 µM
[29] = second compound 3.16 µM, first compound 3.16 µM
[30] = second compound 3.16 µM, first compound 10 µM
[31] = second compound 10 µM, first compound 0.0316 µM
[32] = second compound 10 µM, first compound 0.1 µM
[33] = second compound 10 µM, first compound 0.316 µM
[34] = second compound 10 µM, first compound 1 µM
[35] = second compound 10 µM, first compound 3.16 µM
[36] = second compound 10 µM, first compound 10 µM
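Further: spheroids exposed to the drugs for 7 days before readout.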
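Wherever viability, T/C is given: 100% = DMSO vehicle control wells.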

## CC1(C)CCC(CN2CCN(c3ccc(C(=O)NS(=O)(=O)c4ccc(NCC5CCOCC5)c([N+](=O)[O-])c4)c(Oc4cnc5[nH]ccc5c4)c3)CC2)=C(c2ccc(Cl)cc2)C1 + CN1CCN(c2cc(C(=O)Nc3cc4cc(-c5cnn(C)c5)ccc4cn3)ccn2)CC1
Second compound 0.0316 µM
  IC50: > 10000 nM
Second compound 0.1 µM
  IC50: 8060 nM
Second compound 0.316 µM
  IC50: < 31.6 nM
Second compound 1 µM
  IC50: < 31.6 nM
Second compound 3.16 µM
  IC50: < 31.6 nM
Second compound 10 µM
  IC50: < 31.6 nM
[1]
  viability, T/C: 93.7%
[2]
  viability, T/C: 95.9%
[3]
  viability, T/C: 101%
[4]
  viability, T/C: 104%
[5]
  viability, T/C: 92.1%
[6]
  viability, T/C: 50.8%
[7]
  viability, T/C: 80.3%
[8]
  viability, T/C: 77.9%
[9]
  viability, T/C: 86.7%
[10]
  viability, T/C: 87.7%
[11]
  viability, T/C: 84.9%
[12]
  viability, T/C: 42.3%
[13]
  viability, T/C: 5.92%
[14]
  viability, T/C: 5.59%
[15]
  viability, T/C: 5.97%
[16]
  viability, T/C: 6.42%
[17]
  viability, T/C: 3.9%
[18]
  viability, T/C: 5.66%
[19]
  viability, T/C: 0.75%
[20]
  viability, T/C: 0.68%
[21]
  viability, T/C: 0.5%
[22]
  viability, T/C: 0.5%
[23]
  viability, T/C: 0.63%
[24]
  viability, T/C: 2.1%
[25]
  viability, T/C: 0.5%
[26]
  viability, T/C: 0.74%
[27]
  viability, T/C: 0.43%
[28]
  viability, T/C: 0.7%
[29]
  viability, T/C: 0.52%
[30]
  viability, T/C: 3.57%
[31]
  viability, T/C: 0.25%
[32]
  viability, T/C: 1.16%
[33]
  viability, T/C: 0.37%
[34]
  viability, T/C: 0.34%
[35]
  viability, T/C: 0.32%
[36]
  viability, T/C: 2.82%

## CC1COCCN1c1cc(C2(S(C)(=N)=O)CC2)nc(-c2ccnc3[nH]ccc23)n1 (stereo unspecified) + CN1CCN(c2cc(C(=O)Nc3cc4cc(-c5cnn(C)c5)ccc4cn3)ccn2)CC1
Second compound 0.0316 µM
  IC50: 3820 nM
Second compound 0.1 µM
  IC50: 1930 nM
Second compound 0.316 µM
  IC50: < 31.6 nM
Second compound 1 µM
  IC50: < 31.6 nM
Second compound 3.16 µM
  IC50: < 31.6 nM
Second compound 10 µM
  IC50: < 31.6 nM
[1]
  viability, T/C: 107%
[2]
  viability, T/C: 99.8%
[3]
  viability, T/C: 102%
[4]
  viability, T/C: 82.8%
[5]
  viability, T/C: 53.3%
[6]
  viability, T/C: 34.5%
[7]
  viability, T/C: 94.5%
[8]
  viability, T/C: 83.4%
[9]
  viability, T/C: 73.3%
[10]
  viability, T/C: 70.1%
[11]
  viability, T/C: 35.6%
[12]
  viability, T/C: 22.4%
[13]
  viability, T/C: 7.43%
[14]
  viability, T/C: 5.54%
[15]
  viability, T/C: 5.89%
[16]
  viability, T/C: 5.38%
[17]
  viability, T/C: 4.22%
[18]
  viability, T/C: 5.13%
[19]
  viability, T/C: 0.53%
[20]
  viability, T/C: 0.67%
[21]
  viability, T/C: 2.64%
[22]
  viability, T/C: 0.45%
[23]
  viability, T/C: 0.65%
[24]
  viability, T/C: 1.19%
[25]
  viability, T/C: 0.65%
[26]
  viability, T/C: 0.51%
[27]
  viability, T/C: 1.73%
[28]
  viability, T/C: 0.46%
[29]
  viability, T/C: 0.61%
[30]
  viability, T/C: 0.43%
[31]
  viability, T/C: 0.36%
[32]
  viability, T/C: 0.42%
[33]
  viability, T/C: 1.59%
[34]
  viability, T/C: 0.41%
[35]
  viability, T/C: 1.27%
[36]
  viability, T/C: 1.47%

## NC(=O)C(=Cn1cnc(-c2cc(C(F)(F)F)cc(C(F)(F)F)c2)n1)c1cncnc1 + CN1CCN(c2cc(C(=O)Nc3cc4cc(-c5cnn(C)c5)ccc4cn3)ccn2)CC1
Second compound 0.0316 µM
  IC50: 80.4 nM
Second compound 0.1 µM
  IC50: 42 nM
Second compound 0.316 µM
  IC50: < 9.49 nM
Second compound 1 µM
  IC50: < 9.49 nM
Second compound 3.16 µM
  IC50: < 9.49 nM
Second compound 10 µM
  IC50: < 9.49 nM
Second compound 0.0316 µM, first compound 0.00949 µM
  viability, T/C: 90.6%
Second compound 0.0316 µM, first compound 0.03 µM
  viability, T/C: 67.2%
Second compound 0.0316 µM, first compound 0.0949 µM
  viability, T/C: 52.1%
Second compound 0.0316 µM, first compound 0.3 µM
  viability, T/C: 21.3%
Second compound 0.0316 µM, first compound 0.949 µM
  viability, T/C: 16.9%
Second compound 0.0316 µM, first compound 3 µM
  viability, T/C: 11.8%
Second compound 0.1 µM, first compound 0.00949 µM
  viability, T/C: 61.6%
Second compound 0.1 µM, first compound 0.03 µM
  viability, T/C: 56.5%
Second compound 0.1 µM, first compound 0.0949 µM
  viability, T/C: 35.2%
Second compound 0.1 µM, first compound 0.3 µM
  viability, T/C: 12.4%
Second compound 0.1 µM, first compound 0.949 µM
  viability, T/C: 7.44%
Second compound 0.1 µM, first compound 3 µM
  viability, T/C: 2.92%
Second compound 0.316 µM, first compound 0.00949 µM
  viability, T/C: 2.46%
Second compound 0.316 µM, first compound 0.03 µM
  viability, T/C: 1.91%
Second compound 0.316 µM, first compound 0.0949 µM
  viability, T/C: 3.26%
Second compound 0.316 µM, first compound 0.3 µM
  viability, T/C: 0.41%
Second compound 0.316 µM, first compound 0.949 µM
  viability, T/C: 0.31%
Second compound 0.316 µM, first compound 3 µM
  viability, T/C: 0.19%
Second compound 1 µM, first compound 0.00949 µM
  viability, T/C: 0.39%
Second compound 1 µM, first compound 0.03 µM
  viability, T/C: 0.4%
Second compound 1 µM, first compound 0.0949 µM
  viability, T/C: 0.64%
Second compound 1 µM, first compound 0.3 µM
  viability, T/C: 0.44%
Second compound 1 µM, first compound 0.949 µM
  viability, T/C: 2.17%
Second compound 1 µM, first compound 3 µM
  viability, T/C: 0.11%
Second compound 3.16 µM, first compound 0.00949 µM
  viability, T/C: 0.34%
Second compound 3.16 µM, first compound 0.03 µM
  viability, T/C: 0.4%
Second compound 3.16 µM, first compound 0.0949 µM
  viability, T/C: 0.41%
Second compound 3.16 µM, first compound 0.3 µM
  viability, T/C: 0.37%
Second compound 3.16 µM, first compound 0.949 µM
  viability, T/C: 0.26%
Second compound 3.16 µM, first compound 3 µM
  viability, T/C: 0.13%
Second compound 10 µM, first compound 0.00949 µM
  viability, T/C: 0.25%
Second compound 10 µM, first compound 0.03 µM
  viability, T/C: 0.23%
Second compound 10 µM, first compound 0.0949 µM
  viability, T/C: 1.86%
Second compound 10 µM, first compound 0.3 µM
  viability, T/C: 0.31%
Second compound 10 µM, first compound 0.949 µM
  viability, T/C: 0.24%
Second compound 10 µM, first compound 3 µM
  viability, T/C: 0.69%
